Laboratory results from patent US8431140B2, “Topical compositions” (priority 2006, dated 2013).

Columns and labels:
[1] = intravenous administration of 7.5-10 mg three times daily; cited from earlier work
[2] = Flux of acyclovir gels with different drug concentrations (saturation flux comparison); format: in vitro ADME; conditions: in the vehicle of Table 10a

Nc1nc2c(ncn2COCCO)c(=O)[nH]1 [acyclovir]
Serum concentrations of acyclovir [1]: 5000 to 10000 ng/mL | Acyclovir concentration giving a saturated formulation post-evaporation [2]: 0.06 % (w/w)
